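Test compounds were applied to cells in 96-well plates for 48 hours at 5 doses. TGI denotes the concentration required for complete inhibition of growth.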
Experiments:
Experiment in all cases: inhibition of tumour cell growth, NCI panel, 48 h
[1] = test system: MDA-MB-231 breast
[2] = test system: OVCAR-5 ovarian
[3] = test system: T-47D breast
[4] = test system: ACHN renal
[5] = test system: SW-620 colon
[6] = test system: BT-549 breast
[7] = test system: U251 CNS
[8] = test system: RXF 393 renal
[9] = test system: SF-268 CNS
[10] = test system: MDA-N
[11] = test system: OVCAR-4 ovarian
[12] = test system: SK-MEL-28 melanoma
[13] = test system: RPMI-8226 leukemia
[14] = test system: MCF7 breast
[15] = test system: NCI-H23 lung
[16] = test system: EKVX NSCLC
[17] = test system: HCC-2998 colon
[18] = test system: TK-10 renal
[19] = test system: DU-145 prostate
[20] = test system: SF-539 CNS

CC(=O)O[C@H]1C(=O)[C@@]2(C)[C@H]([C@H](OC(=O)c3ccccc3)[C@]3(O)C[C@H](OC(=O)[C@H](O)[C@@H](NC(=O)OC(C)(C)C)c4ccco4)C(C)=C1C3(C)C)[C@]1(OC(C)=O)CO[C@@H]1C[C@@H]2O
TGI [1]: 14.7 µM | TGI [2]: 9.96 µM | TGI [3]: > 50 µM | TGI [4]: > 48.1 µM | TGI [5]: > 50 µM | TGI [6]: < 0.005 µM | TGI [7]: > 16.1 µM | TGI [8]: 0.0338 µM | TGI [9]: > 50 µM | TGI [10]: 0.0325 µM | TGI [11]: > 50 µM | TGI [12]: > 28.3 µM | TGI [13]: > 28.2 µM | TGI [14]: 0.247 µM | TGI [15]: > 40.9 µM | TGI [16]: > 50 µM | TGI [17]: 0.00901 µM | TGI [18]: 29 µM | TGI [19]: < 0.005 µM | TGI [20]: 0.0138 µM

O=C(/C=C/c1ccc(O)c(O)c1)c1ccc(O)cc1O
TGI [1]: 50.8 µM | TGI [2]: 32.8 µM | TGI [3]: 20 µM | TGI [4]: 45.3 µM | TGI [5]: 35.2 µM | TGI [6]: 14.6 µM | TGI [7]: 17.6 µM | TGI [8]: 25.8 µM | TGI [9]: 37.6 µM | TGI [10]: 19.8 µM | TGI [11]: 37.8 µM | TGI [12]: 30.5 µM | TGI [13]: 55.2 µM | TGI [14]: 15.7 µM | TGI [15]: 39.9 µM | TGI [16]: 75.6 µM | TGI [17]: 34.2 µM | TGI [18]: 60.3 µM | TGI [19]: 18.9 µM | TGI [20]: 25.8 µM

CC(C)NC(=O)OCc1c(COC(=O)NC(C)C)c(-c2cc[n+](COC(=O)Cc3ccccc3)cc2)n2c1CCC2
TGI [1]: > 100 µM | TGI [2]: > 100 µM | TGI [3]: > 100 µM | TGI [4]: > 100 µM | TGI [5]: > 100 µM | TGI [6]: > 100 µM | TGI [7]: > 100 µM | TGI [8]: > 100 µM | TGI [9]: > 100 µM | TGI [10]: > 100 µM | TGI [11]: > 100 µM | TGI [12]: > 100 µM | TGI [13]: > 100 µM | TGI [14]: > 100 µM | TGI [15]: > 100 µM | TGI [16]: > 100 µM | TGI [17]: > 100 µM | TGI [18]: > 100 µM | TGI [19]: > 100 µM | TGI [20]: > 100 µM

CCCCCCc1cc2cc(-c3cn4ccccc4n3)c(=O)oc2cc1O
TGI [1]: 9.7 µM | TGI [2]: 51.7 µM | TGI [3]: 52 µM | TGI [4]: 38.1 µM | TGI [5]: > 53.6 µM | TGI [6]: 22.1 µM | TGI [7]: 10.2 µM | TGI [8]: 15.1 µM | TGI [9]: 6.94 µM | TGI [10]: 18.9 µM | TGI [11]: 17.5 µM | TGI [12]: 24.7 µM | TGI [13]: 18.4 µM | TGI [14]: 17.5 µM | TGI [15]: 17 µM | TGI [16]: 45.4 µM | TGI [17]: 47.2 µM | TGI [18]: 30.1 µM | TGI [19]: 19.3 µM | TGI [20]: 7.19 µM

COc1cc2c(cc1OC)-c1cc3cc(OC)c(OC)cc3c(C)[n+]1CC2 (tested in a mixture with another compound)
TGI [1]: > 100 µM | TGI [2]: > 100 µM | TGI [3]: 25.2 µM | TGI [4]: > 100 µM | TGI [5]: > 100 µM | TGI [6]: > 100 µM | TGI [7]: > 100 µM | TGI [8]: > 100 µM | TGI [9]: > 100 µM | TGI [10]: > 100 µM | TGI [11]: > 100 µM | TGI [12]: > 100 µM | TGI [13]: > 100 µM | TGI [14]: > 100 µM | TGI [15]: > 100 µM | TGI [16]: > 100 µM | TGI [17]: 62.5 µM | TGI [18]: > 100 µM | TGI [19]: > 100 µM | TGI [20]: > 100 µM

C[C@@]12C[C@@H](c3ccccc3O1)N1CCCSC1=N2
TGI [1]: > 100 µM | TGI [2]: > 100 µM | TGI [3]: > 100 µM | TGI [4]: > 100 µM | TGI [5]: > 100 µM | TGI [6]: > 100 µM | TGI [7]: > 100 µM | TGI [8]: > 100 µM | TGI [9]: > 100 µM | TGI [10]: > 100 µM | TGI [11]: > 100 µM | TGI [12]: > 100 µM | TGI [13]: > 100 µM | TGI [14]: > 100 µM | TGI [15]: > 100 µM | TGI [16]: > 100 µM | TGI [17]: > 100 µM | TGI [18]: > 100 µM | TGI [19]: > 100 µM | TGI [20]: > 100 µM
